Assay results from PubChem BioAssay AID1963438 (Molecular Pharmacology Branch, DTP, NCI, 2024).
One block for each molecule: values may come before it.

Test system: NCI-H510 multicellular tumor spheroid growth, % test/control
Experiment: Anticancer human tumor NCI-H510 cell line growth inhibition [Asc];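 note: spheroids exposed to agents for 7 days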;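 for viability, T/C: 100% = DMSO vehicle control wells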
Conditions: for IC50: curve of first compound; for viability, T/C: stronger effect = lower value
How it was run: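 Spheroid model: tumor line + HUVEC + hMSC. Single agents and combinations; top conc. at/near clinical Cmax (10 microM if undetermined), half-log dilutions. DMSO stocks at 800-fold test concentration.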

- IC50 (second compound 0.00316 µM): > 3 µM
- IC50 (second compound 0.01 µM): > 3 µM
- IC50 (second compound 0.0316 µM): > 3 µM
- IC50 (second compound 0.1 µM): > 3 µM
- IC50 (second compound 0.316 µM): > 3 µM
- IC50 (second compound 1 µM): > 3 µM
SMILES: Cc1nc(N2CCC3(CC2)COC(C)C3N)c(CO)nc1Sc1ccnc(N)c1Cl (configuration not stated) + CNC(C)C(=O)NC1CN(S(=O)(=O)c2cccc(S(=O)(=O)N3CCC4CCC(C(=O)NC(c5ccccc5)c5ccccc5)N4C(=O)C(NC(=O)C(C)NC)C3)c2)CCC2CCC(C(=O)NC(c3ccccc3)c3ccccc3)N2C1=O
- viability, T/C (second compound 0.00316 µM, first compound 0.00949 µM): 103%
- viability, T/C (second compound 0.00316 µM, first compound 0.03 µM): 95.3%
- viability, T/C (second compound 0.00316 µM, first compound 0.0949 µM): 104%
- viability, T/C (second compound 0.00316 µM, first compound 0.3 µM): 89%
- viability, T/C (second compound 0.00316 µM, first compound 0.949 µM): 98.5%
- viability, T/C (second compound 0.00316 µM, first compound 3 µM): 106%
- viability, T/C (second compound 0.01 µM, first compound 0.00949 µM): 102%
- viability, T/C (second compound 0.01 µM, first compound 0.03 µM): 108%
- viability, T/C (second compound 0.01 µM, first compound 0.0949 µM): 99.9%
- viability, T/C (second compound 0.01 µM, first compound 0.3 µM): 105%
- viability, T/C (second compound 0.01 µM, first compound 0.949 µM): 93.9%
- viability, T/C (second compound 0.01 µM, first compound 3 µM): 102%
- viability, T/C (second compound 0.0316 µM, first compound 0.00949 µM): 97.9%
- viability, T/C (second compound 0.0316 µM, first compound 0.03 µM): 88.3%
- viability, T/C (second compound 0.0316 µM, first compound 0.0949 µM): 95.9%
- viability, T/C (second compound 0.0316 µM, first compound 0.3 µM): 99.8%
- viability, T/C (second compound 0.0316 µM, first compound 0.949 µM): 94.7%
- viability, T/C (second compound 0.0316 µM, first compound 3 µM): 111%
- viability, T/C (second compound 0.1 µM, first compound 0.00949 µM): 99.3%
- viability, T/C (second compound 0.1 µM, first compound 0.03 µM): 99.2%
- viability, T/C (second compound 0.1 µM, first compound 0.0949 µM): 109%
- viability, T/C (second compound 0.1 µM, first compound 0.3 µM): 88.1%
- viability, T/C (second compound 0.1 µM, first compound 0.949 µM): 99.5%
- viability, T/C (second compound 0.1 µM, first compound 3 µM): 106%
- viability, T/C (second compound 0.316 µM, first compound 0.00949 µM): 91.8%
- viability, T/C (second compound 0.316 µM, first compound 0.03 µM): 117%
- viability, T/C (second compound 0.316 µM, first compound 0.0949 µM): 94.9%
- viability, T/C (second compound 0.316 µM, first compound 0.3 µM): 98.5%
- viability, T/C (second compound 0.316 µM, first compound 0.949 µM): 94.7%
- viability, T/C (second compound 0.316 µM, first compound 3 µM): 95%
- viability, T/C (second compound 1 µM, first compound 0.00949 µM): 106%
- viability, T/C (second compound 1 µM, first compound 0.03 µM): 91.1%
- viability, T/C (second compound 1 µM, first compound 0.0949 µM): 104%
- viability, T/C (second compound 1 µM, first compound 0.3 µM): 94.3%
- viability, T/C (second compound 1 µM, first compound 0.949 µM): 90.6%
- viability, T/C (second compound 1 µM, first compound 3 µM): 100%

- IC50 (second compound 0.01 µM): 9.49 µM
- IC50 (second compound 0.0316 µM): 8.07 µM
- IC50 (second compound 0.1 µM): 8.9 µM
- IC50 (second compound 0.316 µM): 9.8 µM
- IC50 (second compound 1 µM): > 10 µM
SMILES: O=C(c1cc(Cc2n[nH]c(=O)c3ccccc23)ccc1F)N1CCN(C(=O)C2CC2)CC1 + CNC(C)C(=O)NC1CN(S(=O)(=O)c2cccc(S(=O)(=O)N3CCC4CCC(C(=O)NC(c5ccccc5)c5ccccc5)N4C(=O)C(NC(=O)C(C)NC)C3)c2)CCC2CCC(C(=O)NC(c3ccccc3)c3ccccc3)N2C1=O
- viability, T/C (second compound 0.01 µM, first compound 0.0316 µM): 103%
- viability, T/C (second compound 0.01 µM, first compound 0.1 µM): 98.5%
- viability, T/C (second compound 0.01 µM, first compound 0.316 µM): 110%
- viability, T/C (second compound 0.01 µM, first compound 1 µM): 91.7%
- viability, T/C (second compound 0.01 µM, first compound 3.16 µM): 89.4%
- viability, T/C (second compound 0.01 µM, first compound 10 µM): 47.9%
- viability, T/C (second compound 0.0316 µM, first compound 0.0316 µM): 99.8%
- viability, T/C (second compound 0.0316 µM, first compound 0.1 µM): 101%
- viability, T/C (second compound 0.0316 µM, first compound 0.316 µM): 96.2%
- viability, T/C (second compound 0.0316 µM, first compound 1 µM): 109%
- viability, T/C (second compound 0.0316 µM, first compound 3.16 µM): 95%
- viability, T/C (second compound 0.0316 µM, first compound 10 µM): 39.7%
- viability, T/C (second compound 0.1 µM, first compound 0.0316 µM): 90.3%
- viability, T/C (second compound 0.1 µM, first compound 0.1 µM): 89.2%
- viability, T/C (second compound 0.1 µM, first compound 0.316 µM): 83.2%
- viability, T/C (second compound 0.1 µM, first compound 1 µM): 114%
- viability, T/C (second compound 0.1 µM, first compound 3.16 µM): 91.8%
- viability, T/C (second compound 0.1 µM, first compound 10 µM): 45.3%
- viability, T/C (second compound 0.316 µM, first compound 0.0316 µM): 97.8%
- viability, T/C (second compound 0.316 µM, first compound 0.1 µM): 107%
- viability, T/C (second compound 0.316 µM, first compound 0.316 µM): 117%
- viability, T/C (second compound 0.316 µM, first compound 1 µM): 87.5%
- viability, T/C (second compound 0.316 µM, first compound 3.16 µM): 89.1%
- viability, T/C (second compound 0.316 µM, first compound 10 µM): 48.9%
- viability, T/C (second compound 1 µM, first compound 0.0316 µM): 112%
- viability, T/C (second compound 1 µM, first compound 0.1 µM): 110%
- viability, T/C (second compound 1 µM, first compound 0.316 µM): 104%
- viability, T/C (second compound 1 µM, first compound 1 µM): 101%
- viability, T/C (second compound 1 µM, first compound 3.16 µM): 92.1%
- viability, T/C (second compound 1 µM, first compound 10 µM): 58%
